Reference: patent EP4744657A1, “THERAPEUTIC AGENT FOR HUMAN GRAFT VERSUS HOST DISEASE AND COMBINATION THEREOF” (National University Corporation Okayama University, priority 2023, dated 2025)
Where “and” joins values, the source holds several entries; their conditions need not be identical. Equal values may be shown once.

Experiments:
[1] = Plasma concentration of active ingredient in patients, measured by HPLC (Example 3); format: in vivo, human
Protocol: To a total of 11 patients, a single dose of 2.0 mg, 4.0 mg, or 6.0 mg of tamibarotene was administered.
Moreover, to a total of 6 patients, repeated doses of 8.0 mg or 10.0 mg of tamibarotene were administered.
For the 2.0 mg dose, one tablet (2 mg of tamibarotene) was administered after breakfast using a tablet of 2 mg tamibarotene; for the 4.0 mg dose, one tablet (2 mg of tamibarotene) was administered after breakfast and one tablet (2 mg of tamibarotene) was administered after dinner; and for the 6.0 mg dose, two tablets (4 mg of tamibarotene) were administered after breakfast and one tablet (2 mg of tamibarotene) was administered after dinner.
For the 8.0 mg dose, two tablets (4 mg of tamibarotene) after breakfast and two tablets (4 mg of tamibarotene) after dinner were administered repeatedly for 35 to 46 days, using a tablet of 2 mg tamibarotene. For the 10.0 mg dose, three tablets (6 mg of tamibarotene) after breakfast and two tablets (4 mg of tamibarotene) after dinner were administered repeatedly for 34 to 59 days, using a tablet of 2 mg tamibarotene. […]

[2] = system: chronic graft versus host disease (chronic GVHD); experiment: Clinical study of efficacy and safety of tamibarotene for chronic GVHD (Examples 1 and 2); format: in vivo, human; details: for Eyeball: subjects with improvement in Schirmer's test: out of the 18 subjects; for subjects for whom the overall judgment was PR: oral, start 4 mg per day, with PSL/steroid
Protocol: Tamibarotene was administered to a patient with chronic graft versus host disease (chronic GVHD) after allogeneic hematopoietic stem cell transplantation, and efficacy thereof was studied. Main selection criteria for subjects are as follows: • (A) An age is 18 years or older and younger than 85 years • (B) A Karnofsky performance status (KPS) is 60 or more • (C) A steroid treatment-refractory or steroid treatment-dependent patient who has started treatment with 0.5 mg/kg or more of PSL (prednisolone) (or received corresponding steroid treatment) as a first-line treatment, and who falls under any of the following (1) through (4): • (1) A patient who needs additional treatment because of exacerbation even after 1 mg/kg or more of PSL has been administered for 2 weeks; • (2) A patient who has not been ameliorated after 4 weeks of treatment, including administration of 0.5 mg/kg or more of PSL for 2 weeks, and needs additional treatment. • (3) A patient whose GVHD symptom has relapsed or worsened within a period in which the dose of the steroid was reduced • (4) A steroid treatment-dependent patient for whom a dose reduction from 10 mg/day (or corresponding steroid treatment) is difficult Tamibarotene was administered to 18 subjects. As the administration method, 2 mg tablets of tamibarotene were administered orally for 24 weeks. The administration was started with 2 doses (a 2 mg tablet, twice) after breakfast and dinner, i.e., 4 mg (equivalent to 3 mg/m^2) per day. PSL or steroid administration was also continued daily. 2 mg tablets of tamibarotene were administered orally for 24 weeks. Administration was started at 4 mg (equivalent to 3 mg/m^2) per day, i.e., twice daily after breakfast and dinner (one 2 mg tablet in each of the morning and evening). If an adverse event was mild (grade 0 to 1), the dose could be increased to 8 mg per day (two 2 mg tablets in each of the morning and evening) after 4 weeks of continuation (in a case of 6 mg per day, two 2 mg tablets were to be taken after breakfast and one 2 mg tablet after dinner). In a case of grade 2 for an unexpected adverse event (for which a causal relationship could not be ruled out), or grade 3 for an expected adverse event (for which a causal relationship could not be ruled out), the dose was reduced to 2 mg per day (one tablet once after breakfast), and administration was continued. Alternatively, after a 2-week drug holiday, administration was restarted at 2 mg per day and continued, after confirming that the adverse event had improved to a grade one level lower than that before the drug holiday. However, in regard to an abnormal liver function of grade 3, in a case of a patient who had grade 3 liver dysfunction due to chronic GVHD from before enrollment, administration could be continued without dose reduction or drug holiday, even if the abnormal liver function remained at grade 3. In a case where drug holidays and restarts were repeated with administration at 2 mg per day due to an adverse event, administration could be continued by reducing the dose to 2 mg on alternate days. The survival rate without treatment failure (death, relapse, implementation of additional treatment) at the end of tamibarotene administration (week 24), i.e., failure-free survival (FFS), was evaluated. In a case where additional treatment was implemented for chronic GVHD, such a case was considered treatment failure at that point in time. In regard to the additional treatment herein, a change in the steroid dose was not considered, but in a case where the dose was increased to an amount exceeding 1 mg/kg/day, it was considered that additional treatment had been implemented. [Table 1] For the skin, eyeball, and gastrointestinal tract, the NIH organ-specific scores described in Biol. Blood Marrow Transplant, 2005 11(12), 945-56 were used. For the skin, a therapeutic effect was further evaluated using a total skin score. In addition, the 15-point Schubert scale in Table 2 was used for the oral cavity. […]

[3] = week 12 of administration, 18 subjects
[4] = week 24, out of the 16 subjects
[5] = week 24 of administration, 5/18
[6] = week 24 of administration, 18 subjects

CC1(C)CCC(C)(C)c2cc(NC(=O)c3ccc(C(=O)O)cc3)ccc21 [tamibarotene, 4-[(5,6,7,8-tetrahydro-5,5,8,8-tetramethyl-2-naphthalenyl)carbamoyl]benzoic acid]
Plasma concentration ([1]; after 8 hours from a single dose of 2.0 mg, lowest concentration list, 480 min): 3.26 ng/mL | Plasma concentration ([1]; after 10 hours from a single dose of 4.0 mg, lowest concentration list, 600 min): 8.03 ng/mL and 7.01 ng/mL | Plasma concentration ([1]; after 24 hours from single dose of 6.0 mg, individual values, lowest concentration list, 1440 min): 1.08 ng/mL and 1.14 ng/mL and 2.50 ng/mL | Plasma concentration ([1]; after hours (figure not given) from repeated doses (46 days) of 8.0 mg, highest concentration list): 100.09 ng/mL | concentration at 4 h ([1]; human, plasma, po, 2 mg, after 4 hours from a single dose of 2.0 mg, lowest concentration list): 8.98 ng/mL | concentration at 8 h ([1]; human, plasma, po, 2 mg, after 8 hours from a single dose of 2.0 mg, lowest concentration list): 5.04 ng/mL | concentration at 10 h ([1]; human, plasma, po, 4 mg, after 10 hours from a single dose of 4.0 mg, lowest concentration list): 9.56 ng/mL | concentration at 4 h ([1]; human, plasma, po, 6 mg, after 4 hours from a single dose of 6.0 mg, highest concentration list): 80.2 ng/mL | concentration at 4 h ([1]; human, plasma, po, 6 mg, after 4 hours from repeated doses (47 days) of 6.0 mg, highest concentration list): 92.5 ng/mL | concentration at 6 h ([1]; human, plasma, po, 6 mg, after 6 hours from a single dose of 6.0 mg, lowest concentration list): 7.42 ng/mL | concentration at 10 h ([1]; human, plasma, po, 6 mg, after 10 hours from a single dose of 6.0 mg, lowest concentration list): 7.72 ng/mL | concentration at 4 h ([1]; human, plasma, po, 8 mg, after 4 hours from repeated doses (35 days) of 8.0 mg, highest concentration list): 84.6 ng/mL | concentration at 4 h ([1]; human, plasma, po, 8 mg, after 4 hours from repeated doses (46 days) of 8.0 mg, highest concentration list): 85.2 ng/mL | concentration at 24 h ([1]; human, plasma, po, 8 mg, after 24 hours from repeated doses (46 days) of 8.0 mg, lowest concentration list): 2.92 ng/mL | concentration at 2 h ([1]; human, plasma, po, 10 mg, after 2 hours from repeated doses (34 days) of 10.0 mg, highest concentration list): 88 ng/mL | concentration at 2 h ([1]; human, plasma, po, 10 mg, after 2 hours from repeated doses (58 days) of 10.0 mg, highest concentration list): 199 ng/mL | concentration at 2 h ([1]; human, plasma, po, 10 mg, after 2 hours from repeated doses (59 days) of 10.0 mg, highest concentration list): 119 ng/mL | concentration at 4 h ([1]; human, plasma, po, 10 mg, after 4 hours from repeated doses (34 days) of 10.0 mg, highest concentration list): 85.6 ng/mL | concentration at 4 h ([1]; human, plasma, po, 10 mg, after 4 hours from repeated doses (36 days) of 10.0 mg, highest concentration list): 161 ng/mL | concentration at 4 h ([1]; human, plasma, po, 10 mg, after 4 hours from repeated doses (58 days) of 10.0 mg, highest concentration list): 88.7 ng/mL | concentration at 4 h ([1]; human, plasma, po, 10 mg, after 4 hours from repeated doses (59 days) of 10.0 mg, highest concentration list): 82.1 ng/mL | concentration at 8 h ([1]; human, plasma, po, 10 mg, after 8 hours from repeated doses (36 days) of 10.0 mg, highest concentration list): 112 ng/mL | follow-up of single subjects whose overall judgment was PR ([2]; 2 years after the end of treatment, one subject per line): able to discontinue the administration of PSL and reduce the dose of FK506 at 2 years after the end of treatment without exacerbation of chronic GVHD | knee joint flexion ([2]; Case 1, start vs end of administration, 200 days, Fig. 1): notable improvement in knee joint flexion | knee joint extension ([2]; Case 1, start vs end of administration, 200 days, tamibarotene/prednisolone/tacrolimus 4 mg/15 mg/4 mg at start, Fig. 1): notable improvement in knee joint extension | cutis symptom on knee ([2]; Case 2, start vs end of administration, 137 days, Fig. 2): notable amelioration of pigmentation and skin sclerosis in the knee | cutis symptom on lower part of back ([2]; Case 2, start vs end of administration, 137 days, tamibarotene/predonine/tacrolimus 4 mg/11 mg/0.2 mg at start, Fig. 2): amelioration of pigmentation and skin sclerosis in the lower part of the lower back | oral cavity symptom ([2]; Case 3, start vs end of administration, 83 days, tamibarotene/prednisolone/tacrolimus 4 mg/10 mg/0.6 mg, Fig. 3): healing of ulcer and notable amelioration of erythema were seen in the oral cavity | response rate for each organ (Fig. 4), in words ([2]; all cases in Example 1): the effect was seen in chronic GVHD of the eyeball and liver in addition to the skin and the oral cavity, or chronic GVHD maintained without exacerbation | overall response rate ([2]; entire administered population, final analysis, NIH Consensus Development Project Criteria (2005), 6/18, 95% confidence interval 13.3% to 59.0%): 33.3% | overall response rate based on the NIH Consensus Development Project Criteria (2014) ([2]; entire administered population, sensitivity analysis, 7/18 cases, 95% confidence interval 17.3% to 64.3%): 38.9% | NIH response rate for the joints and fascia ([2]; human, in vivo): 11% | response rate for the lung function score ([2]; human, in vivo): unchanged | NIH response rate for the liver ([2]; influence of other diseases difficult to consider): 23% | Eyeball: subjects with improvement in Schirmer's test ([2]; left eye): 7 subjects | NIH response rate for the gastrointestinal tract ([2]; n=5): 20% | NIH response rate for the genitals ([2]; n=6): 17% | amelioration in the symptom after administration ([2]; patients in Examples, no amelioration before with various drugs): amelioration in the symptom was seen in all the patients | Eyeball: subjects with improvement in Schirmer's test ([2]; right eye): 5 subjects | Oral cavity: symptoms ([2]; several subjects): healing of ulcer and notable amelioration of erythema were seen in several subjects | Skin: symptoms ([2]; several subjects): notable amelioration of edema, skin sclerosis, pigmentation, or erythema in several subjects | range of joint motion ([2]; subjects in whom a therapeutic effect was confirmed): notable improvement in the range of joint motion | subjects for whom the overall judgment was SD [2, 3]: 7 subjects | subjects for whom the overall judgment was PR [2, 3]: 5 subjects | subjects in whom the dose of PSL could be reduced by 50% or more ([2]; week 24, compared with start of tamibarotene administration, 18 subjects): 3 subjects | subjects in whom the dose of PSL could be reduced ([2]; week 24, compared with start of treatment, 18 subjects): 7 subjects | Eyeball: NIH response rate ([2]; week 24, 14 subjects): 14% | Eyeball: subjects evaluated as CR ([2]; week 24, 14 subjects): No subject | Eyeball: subjects evaluated as PR ([2]; week 24, 14 subjects): two | Oral cavity: NIH response rate ([2]; week 24, 16 subjects): 25% | Oral cavity: subjects evaluated as CR ([2]; week 24, 16 subjects): Two | Oral cavity: subjects evaluated as PR ([2]; week 24, 16 subjects): two | Skin: NIH response rate ([2]; week 24, 16 subjects): 25% | Skin: subjects evaluated as CR ([2]; week 24, 16 subjects): One | Skin: subjects evaluated as PR ([2]; week 24, 16 subjects): three | Oral cavity: subjects with improved score on the 15-point Schubert scale [2, 4]: 10 subjects | Skin: subjects with improved total skin score [2, 4]: 8 subjects | failure-free survival (FFS) [2, 5]: 28% | response rate [2, 5]: 28% | subjects for whom the overall judgment was SD [2, 6]: 7 subjects | subjects for whom the overall judgment was PR [2, 6]: 5 subjects
